Values quoted from earlier work as cited in paper PMC12808597, “Spatially diffuse cAMP signalling with oppositely biased GLP-1 receptor agonists in β-cells despite differences in receptor localisation” (Molecular Metabolism, 2025).
No end group written: not given here.

Key:
[1] = test system: GLP-1R; details: ref [6],[26]
Text: In this context, interest has emerged in GLP-1R agonist ligands (GLP-1RAs) showing distinct trafficking profiles, which could lead to altered signalling from intracellular locations [[14], [15], [16]], as has been extensively noted for other GPCRs [[17], [18], [19]].

[2] = test system: GLP-1R; details: ref [12]
Text: GPCR signalling localisation is now a major area of research interest. Inherent to this phenomenon is the assumption that signalling responses are subject to tight spatial control, for example in the form of sharp cAMP concentration gradients close to the site of generation. Indeed, this has been reported when comparing GLP-1-induced cAMP responses at different plasma membrane nanodomains in HEK293 cells with overexpressed GLP-1R [12]. This contrasts somewhat with the current work in which cAMP was rapidly detected at intracellular locations distant from the activated GLP-1R in β-cell ...

[3] = test system: rodent systems; details: no reference given
[4] = test system: BRIN-BD11 clonal β-cells; details: ref [5]
Text: (§1) In this work we relied on agonist-specific patterns of internalisation to provide selective endosomal or plasma membrane localisation of active GLP-1R. Alternative approaches include pharmacological or genetic inhibition of receptor internalisation, for example the small molecule dynamin inhibitor dyngo4A [55] or overexpression of dominant negative dynamin K44 mutants, both of which have been used to probe the importance of GLP-1R internalisation on its signalling responses.

[5] = test system: HEK293 cells; details: ref [16]
Text: as §1

## AMG133: GLP-1RA/GIPR antagonistic antibody
[1]
  GLP-1R-mediated delivery to early endosomes: enhanced GLP-1R-mediated delivery to early endosomes

## GLP-1: GLP-1, as used in Anton et al. [12] (HAEGTFTSDVSSYLEGQAAKEFIAWLVKGR; ends and bridges not checked; UniProt P01275 98-127, looked up)
[2]; GLP-1 1 pM
  cAMP at GLP-1R nanodomain: cAMP increases within 60 nm of the GLP-1R in HEK293 cells without changes to whole cell or overall plasma membrane cAMP
[2]; GLP-1 1 nM and 100 nM
  cAMP gradient at GLP-1R nanodomain: no such gradient was seen

## Cc1cc(-n2nc3c(c2-n2ccn(-c4ccc5c(cnn5C)c4F)c2=O)[C@H](C)N(C(=O)c2cc4cc([C@H]5CCOC(C)(C)C5)ccc4n2[C@@]2(c4noc(=O)[nH]4)C[C@@H]2C)CC3)cc(C)c1F [orforglipron]
[3]
  Activity in rodent systems: inactive

## O=C(N/N=C/c1ccc(O)c(O)c1)c1cc2ccccc2cc1O [dynasore]
[4]
  Effect on exendin-4-induced cAMP production: reduced exendin-4-induced cAMP production

## O=C(N/N=C/c1cc(O)c(O)cc1O)c1cc2ccccc2cc1O [dyngo4a]
[5]
  Effect on GLP-1RA signalling responses: broad inhibition of GLP-1RA signalling responses
